Results from patent publication US7229984B2, “Dibenzoxazepinone derivatives and uses thereof” (Roche Palo Alto LLC, priority 2004, dated 2007).
Where a name gives a salt, the structure may show the parent alone.

Key:
[1] = molecular target: T1, recombinant human 5-HT2A receptor (Homo sapiens, UniProt P28223); experiment: Radioligand binding, [3H]Ketanserin competition in CHO-K1 cell membranes; details: [3H]Ketanserin displacement, pH 7.4, 32° C., approximate value, read-out: pKi for 5-HT2A (converted)
T1 construct: expressed in transfected cells; membranes
Procedure: (§1) The binding activity of compounds of this invention in vitro was determined as follows. Duplicate determinations of 5-HT6 ligand affinity were made by competing for binding of [^3H]LSD in cell membranes derived from HEK293 cells stably expressing recombinant human 5-HT6 receptor. Duplicate determinations of 5-HT2A ligand affinity were made by competing for binding of [^3H]Ketanserin (3-(2-(4-(4-fluorobenzoyl)piperidinol)ethyl)-2,4(1H,3H)-quinazolinedione) in cell membranes derived from CHO-K1 cells stably expressing recombinant human 5-HT2A receptor. Membranes were prepared from HEK 293 cell lines by the method described by Monsma et al., Molecular Pharmacology, Vol. 43 pp. 320–327 (1993), and from CHO-K1cell lines as described by Bonhaus et al., Br J Pharmacol. Jun; 115(4):622–8 (1995).
(§2) For estimation of affinity at the 5-HT6 receptor, all determinations were made in assay buffer containing 50 mM Tris-HCl, 10 mM MgSO4, 0.5 mM EDTA, 1 mM ascorbic acid, pH 7.4 at 37° C., in a 250 microliter reaction volume. […]
(§3) Assay tubes containing [^3H] […] Bound[^3H]LSD or [^3H]Ketanserin were determined as radioactive counts per minute using Packard TopCount.
(§4) Displacement of [^3H]LSD or [^3H]Ketanserin from the binding sites was quantified by fitting concentration-binding data to a 4-parameter logistic equation: […]

[2] = molecular target: T2, recombinant human 5-HT6 receptor (Homo sapiens, UniProt P50406); experiment: Radioligand binding, [3H]LSD competition in HEK293 cell membranes; details: [3H]LSD displacement, pH 7.4, 37° C., approximate value, read-out: pKi for 5-HT6 (converted)
T2 construct: expressed in transfected cells; membranes
Procedure: as §1, §2, §3, §4

T1 sequence (P28223 whole entry): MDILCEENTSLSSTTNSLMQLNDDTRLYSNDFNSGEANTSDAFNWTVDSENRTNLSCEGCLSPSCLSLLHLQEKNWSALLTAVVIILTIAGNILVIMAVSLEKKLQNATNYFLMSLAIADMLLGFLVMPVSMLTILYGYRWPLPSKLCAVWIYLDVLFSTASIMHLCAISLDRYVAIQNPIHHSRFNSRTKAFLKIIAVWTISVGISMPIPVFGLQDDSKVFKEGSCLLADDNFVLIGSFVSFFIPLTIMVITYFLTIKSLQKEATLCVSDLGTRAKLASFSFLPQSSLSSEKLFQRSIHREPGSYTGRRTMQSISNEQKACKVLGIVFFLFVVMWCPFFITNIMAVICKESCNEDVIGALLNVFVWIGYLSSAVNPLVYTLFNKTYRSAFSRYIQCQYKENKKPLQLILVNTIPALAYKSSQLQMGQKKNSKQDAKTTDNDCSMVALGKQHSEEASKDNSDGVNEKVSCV
T2 sequence (P50406 whole entry): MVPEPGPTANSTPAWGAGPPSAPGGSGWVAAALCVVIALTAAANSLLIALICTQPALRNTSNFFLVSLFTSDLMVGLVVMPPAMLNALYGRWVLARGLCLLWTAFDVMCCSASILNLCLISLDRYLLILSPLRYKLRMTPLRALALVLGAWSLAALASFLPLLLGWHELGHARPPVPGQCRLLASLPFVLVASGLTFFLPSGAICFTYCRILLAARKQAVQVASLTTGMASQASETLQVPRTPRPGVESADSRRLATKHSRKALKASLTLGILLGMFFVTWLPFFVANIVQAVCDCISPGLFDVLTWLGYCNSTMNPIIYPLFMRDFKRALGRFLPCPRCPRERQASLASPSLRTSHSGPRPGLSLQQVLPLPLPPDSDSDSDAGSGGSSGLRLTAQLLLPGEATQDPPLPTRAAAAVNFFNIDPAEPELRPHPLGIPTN

Row | melting point | Structure (SMILES) | also measured
1 | 301 to 302 °C | O=C1c2cccc(N3CCNCC3)c2Sc2ccccc2N1Cc1ccccc1 (as salt: HCl) [Compound 20, 10-Benzyl-4-piperazin-1-yl-10H-dibenzo[b,f][1,4]thiazepin-11-one] | 
2 | 98 to 99 °C | O=C1c2cccc(N3CCNCC3)c2Oc2ccccc2N1Cc1c[nH]c2ccccc12 [Compound 37, 10-(1H-Indol-3-ylmethyl)-4-piperazin-1-yl-10H-dibenzo[b,f][1,4]oxazepin-11-one] | 
3 |  | O=C1c2cccc(N3CCNCC3)c2Oc2c(F)cccc2N1CCc1ccccc1 [Compound 26, 6-Fluoro-10-phenethyl-4-piperazin-1-yl-10H-dibenzo[b,f][1,4]oxazepin-11-one,hydrochloride] | Ki [1]: ~1320 pM
4 | 198 to 199 °C | O=C1c2cccc(N3CCNCC3)c2Oc2ccccc2N1Cc1ccccc1 (as salt: HCl) [Compound 1, 10-Benzyl-4-piperazin-1-yl-10H-dibenzo[b,f][1,4]oxazepin-11-one] | 
5 |  | O=C1c2cccc(N3CCNCC3)c2Oc2ccc(F)cc2N1Cc1cccc(C(F)(F)F)c1 [Compound 28, 8-Fluoro-4-piperazin-1-yl-10-(3-trifluoromethyl-benzyl)-10H-dibenzo[b,f][1,4]oxazepin-11-one] | Ki [2]: ~282 pM
6 | 322 to 323 °C (dec.) | O=C1c2cccc(N3CCNCC3)c2Nc2ccccc2N1Cc1ccccc1 (as salt: HCl) [Compound 13, 10-Benzyl-4-piperazin-1-yl-5,10-dihydro-dibenzo[b,e][1,4]diazepin-11-one] | 
